According to patent publication US7378391B2, “Cyclosporin alkyne analogues and their pharmaceutical uses” (AMR Technology, Inc., priority 2004, dated 2008):
In brackets after ≈: the same amount, converted by molar mass.

How the values were obtained:
[1] = test system: concanavalin A (ConA)-stimulated murine splenocytes; experiment: Concanavalin A-stimulated splenocyte assay ([3H]thymidine incorporation); format: cell-based, BALB/c mice; conditions: for IC50: immunosuppressive activity of the novel cyclosporin alkyne analogue compound
Protocol: Male BALB/c mice, at 5 to 7 weeks of age, were sacrificed by CO2 inhalation. Spleens were removed and dissociated by pushing through a nylon cell strainer. The splenocytes were washed in RPMI 1640/5% fetal calf serum (FCS) and pelleted at 400×g. Red blood cells were then lysed by resuspending the cell pellet in ACK lysis buffer (150 mM NH4Cl, 1 mM KHCO3, 0.1 mM EDTA, 3 mL per spleen) for 10 min at room temperature. After pelleting at 400×g, the cells were washed by resuspending in RPMI 1640/5% FCS and repelleting. The cell pellet was resuspended in RPMI 1640/5% FCS and again passed through a cell strainer to remove cell aggregates. The cells were then counted and adjusted to 2×10^6 cells/ml in RPMI 1640/10% FCS/50 μM 2-mercaptoethanol. Cell viability was assessed by Trypan blue staining. […] The cells were cultured in a 37° C. CO2 incubator for 2 days and then pulsed with 1 μCi of [^3H]thymidine for 6 hours. Cells were harvested onto filtermats with a TomTec 96 well plate harvester and lysed with H2O. The filtermat and scintillation fluid were sealed in a plastic sleeve. [^3H]thymidine incorporation was measured with a Wallac Trilux plate counter. Initial screens were done at a fixed value of 100 ng/ml test compound. IC50s were calculated from 7 point concentration-response curves using GraphPad software.

[2] = literature value, Rich et al.; cited from earlier work

| SMILES | immunosuppressive activity (as determined by IC50) relative to ISATX247 ([1]; FIG. 1, compared to ISATX247) | immunosuppressive activity (as determined by IC50) relative to cyclosporin A ([1]; FIG. 1, compared to cyclosporin A) | potency in immunosuppression compared to cyclosporin A and ISATX247 ([1]; FIG. 1 legend) | IC50 [1] [ng/mL] | relative immunosuppressive activity compared to cyclosporin A [2] [%] |
| --- | --- | --- | --- | --- | --- |
| CC[C@@H]1NC(=O)[C@H]([C@H](O)[C@H](C)C/C=C/C#CC2CC2)N(C)C(=O)[C@H](C(C)C)N(C)C(=O)[C@H](CC(C)C)N(C)C(=O)[C@H](CC(C)C)N(C)C(=O)[C@@H](C)NC(=O)[C@H](C)NC(=O)[C@H](CC(C)C)N(C)C(=O)[C@H](C(C)C)NC(=O)[C@H](CC(C)C)N(C)C(=O)CN(C)C1=O [Example 33, cyclosporin cyclopropyl alkyne] | equipotent | up to two times more active | enhanced or similar potency | 9 (≈ 7.18 nM) |  |
| CCC1NC(=O)C(C(O)C(C)CC=CC#CBr)N(C)C(=O)C(C(C)C)N(C)C(=O)C(CC(C)C)N(C)C(=O)C(CC(C)C)N(C)C(=O)C(C)NC(=O)C(C)NC(=O)C(CC(C)C)N(C)C(=O)C(C(C)C)NC(=O)C(CC(C)C)N(C)C(=O)CN(C)C1=O (stereo not shown) [Example 15, cyclosporin alkynyl bromide] |  |  |  | 8 |  |
| CCC1NC(=O)C(C(O)C(C)CC=CC#CI)N(C)C(=O)C(C(C)C)N(C)C(=O)C(CC(C)C)N(C)C(=O)C(CC(C)C)N(C)C(=O)C(C)NC(=O)C(C)NC(=O)C(CC(C)C)N(C)C(=O)C(C(C)C)NC(=O)C(CC(C)C)N(C)C(=O)CN(C)C1=O (stereo not shown) [Example 13, cyclosporin alkynyl iodide] |  |  |  | 1 |  |
| CC#CC[C@@H](C)[C@@H](O)[C@H]1C(=O)N[C@@H](CC)C(=O)N(C)CC(=O)N(C)[C@@H](CC(C)C)C(=O)N[C@@H](C(C)C)C(=O)N(C)[C@@H](CC(C)C)C(=O)N[C@@H](C)C(=O)N[C@H](C)C(=O)N(C)[C@@H](CC(C)C)C(=O)N(C)[C@@H](CC(C)C)C(=O)N(C)[C@@H](C(C)C)C(=O)N1C [known cyclosporin alkyne] |  |  |  |  | 10 |
